Reference: patent publication US20030232851A1, “Viral treatment” (The Procter & Gamble Company, priority 1999, published 2003)
In brackets after ≈: the same amount, converted by molar mass. Several values for one entry are separate records, joined by “and”; a condition that tells them apart may be missing. Identical values can stand only once.

Assays:
[1] = system: hepatitis B, HEPG22.2.15; assay: In vitro virus production test of hepatitis B, DNA copy number; format: cell-based
[2] = system: U937RF, a protease resistant strain; assay: Long term in vitro study, U937RF, reverse transcriptase; format: cell-based, HIV
Protocol: A microtiter-based reveres transcriptase (RT) reaction is utilized (Buckheit et al (1991) AIDS Research and Human Retroviruses 7:295-302). Tritiated thymidine triphosphate (NEN)(TTP) is resuspended in distilled water at 5 Ci/ml. Poly rA and oligo dT are prepared as a stock solution which is kept at −20° C. The RT reaction buffer is prepared fresh on a daily basis and consists of 125 μl 1M EGTA, 125 μl water, 125 μl Triton X-100, 50 μl Tris (pH 7.4), 50 μl 1 MDDT, and 40 μl 1M MgCl2. These three solutions are mixed together in a ratio of 1 part TTP, 2.5 parts poly rA:oligo dT, 2.5 parts reaction buffer and 4 parts distilled water. Ten microliters of this reaction mixture is placed in a round bottom microtiter place and 15 μl of virus containing supernatant is added and mixed. The plate is incubated at 37° C. for 60 minutes. Following reaction, the reaction volume is spotted onto filter mats, washed 6 times for 5 minutes each in a 5% sodium phosphate buffer, 2 times for 1 minute each in distilled water, 2 times for 1 minute each in 70% ethanol, and then dried. The dried filter mat is placed in a plastic sample bag, Betaplate scintillation fluid is added and the bag is heat sealed. Incorporated radioactivity is quantified utilizing a Wallac Microbeta scintillation counter.
Acute infection of most established human cell lines with HIV-1 results in the eventual establishment of a constitutive virus-producing chronically infected cell line. The cells can be passaged for long periods of time in culture without loss of virus production. These cells may be utilized to evaluate the effects of anti-HIV compounds on syncytium formation or to evaluate the effects of anti-HIV compounds on levels of virus production from these cells. […] Each of the cells contains an integrated HIV genome or provirus. Chronically infected CEM, H9 and U937 cell lines have been prepared and cultured by Southern Research Institute, Frederick Md. and are available from them.
CEM-SS cells chronically infected with HIV isolate, for example SKI (CEM-SKI) are cultured in RPMI1640 tissue culture medium supplemented with 10% fetal bovine serum and antibiotics. […] CEM-SKI or other infected cells with no added drug are used as the control cells. Cells are allowed to grow to a density of approximately 1×10^6 cells/ml and are then passaged at a 1:10 dilution. […] The drug concentration in the flask is then increased two-fold and the cells maintained as above.
The cell populations contain integrated copies of the HIV genome and constitutively produce HIV at relatively high levels or are latently infected and only produce virus after stimulation with phorbol esters, tumor necrosis factor or IL6 (U1 and ACH2). Reductions in virus products were observed when quantifying supernatant reverse transcriptase activity,
A long term in vitro study of 2-(2-thienyl)-imidazolo [4,5-b]pyridine against U937RF, a protease resistant strain, was conducted at three different levels. The results with U937RF cells were reported at weekly intervals.

In the case of `c1csc(-c2nc3cccnc3[nH]2)c1` [2-(2-thienyl)-imidazolo [4,5-b]pyridine], the “DNA Copy Number, % virus control” value ([1]; 0.64 μg/ml) was 75.3%, the “DNA Copy Number, mean” value ([1]; 0.64 μg/ml) was 255.6 per 3 μl and the “DNA Copy Number, samples 1-3” value ([1]; 0.64 μg/ml) was 249.2 per 3 μl and 255.9 per 3 μl and 261.6 per 3 μl. For the same compound, the “DNA Copy Number, % virus control” value ([1]; 2 μg/ml) was 39.8%, the “DNA Copy Number, mean” value ([1]; 2 μg/ml) was 134.8 per 3 μl and the “DNA Copy Number, samples 1-3” value ([1]; 2 μg/ml) was 134.5 per 3 μl and 124.2 per 3 μl and 145.8 per 3 μl. The “DNA Copy Number, % virus control” value ([1]; 6.4 μg/ml) was 8.2%, the “DNA Copy Number, mean” value ([1]; 6.4 μg/ml) was 27.9 per 3 μl and the “DNA Copy Number, % virus control” value ([1]; 20 μg/ml) was 0.8%. For the same compound, the “DNA Copy Number, mean” value ([1]; 20 μg/ml) was 2.7 per 3 μl, the “DNA Copy Number, % virus control” value ([1]; 64 μg/ml) was 0.1% and the “DNA Copy Number, mean” value ([1]; 64 μg/ml) was 0.4 per 3 μl. The “DNA Copy Number, % virus control” value ([1]; 200 μg/ml) was 0%, the “DNA Copy Number, mean” value ([1]; 200 μg/ml) was 0.1 per 3 μl and the IC50 ([1]; HepG2 2.2.15, first experiment) was 1.6 µg/mL (≈ 7.95 µM). The IC50 ([1]; HepG2 2.2.15, replicate experiment) was 10.7 µg/mL (≈ 53.2 µM), the reverse transcriptase data ([2]; 7 μg/ml, day 4) was 9711 and the reverse transcriptase data ([2]; 7 μg/ml, day 11) was 9974. The reverse transcriptase data ([2]; 7 μg/ml, day 18) was 7462, the reverse transcriptase data ([2]; 7 μg/ml, day 25) was 6952 and the reverse transcriptase data ([2]; 7 μg/ml, day 32) was 9161. It also gave a reverse transcriptase data ([2]; 7 μg/ml, day 39) of 11155, a reverse transcriptase data ([2]; 7 μg/ml, day 46) of 5178 and a reverse transcriptase data ([2]; 7 μg/ml, day 53) of 5878. The reverse transcriptase data ([2]; 7 μg/ml, day 60) was 7586, the reverse transcriptase data ([2]; 7 μg/ml, day 67) was 6678 and the reverse transcriptase data ([2]; 7 μg/ml, day 71) was 7299. It also gave a reverse transcriptase data ([2]; 7 μg/ml, day 74) of 5927, a reverse transcriptase data ([2]; 7 μg/ml, day 88) of 6996 and a reverse transcriptase data ([2]; 7 μg/ml, day 95) of 5624. For the same compound, the reverse transcriptase data ([2]; 7 μg/ml, day 102) was 6002, the reverse transcriptase data ([2]; 7 μg/ml, day 109) was 13890 and the reverse transcriptase data ([2]; 15 μg/ml, day 4) was 6397. For the same compound, the reverse transcriptase data ([2]; 15 μg/ml, day 11) was 8051, the reverse transcriptase data ([2]; 15 μg/ml, day 18) was 7932 and the reverse transcriptase data ([2]; 15 μg/ml, day 25) was 5229. It also gave a reverse transcriptase data ([2]; 15 μg/ml, day 32) of 7277, a reverse transcriptase data ([2]; 15 μg/ml, day 39) of 12487 and a reverse transcriptase data ([2]; 15 μg/ml, day 46) of 4703. It also gave a reverse transcriptase data ([2]; 15 μg/ml, day 53) of 4960, a reverse transcriptase data ([2]; 15 μg/ml, day 60) of 7952 and a reverse transcriptase data ([2]; 15 μg/ml, day 67) of 6417. For the same compound, the reverse transcriptase data ([2]; 15 μg/ml, day 71) was 7016, the reverse transcriptase data ([2]; 15 μg/ml, day 74) was 5903 and the reverse transcriptase data ([2]; 15 μg/ml, day 88) was 5887. It also gave a reverse transcriptase data ([2]; 15 μg/ml, day 95) of 4602, a reverse transcriptase data ([2]; 15 μg/ml, day 102) of 5229 and a reverse transcriptase data ([2]; 15 μg/ml, day 109) of 5718. For the same compound, the reverse transcriptase data ([2]; 30 μg/ml, day 4) was 4841, the reverse transcriptase data ([2]; 30 μg/ml, day 11) was 5389 and the reverse transcriptase data ([2]; 30 μg/ml, day 18) was 6988. It also gave a reverse transcriptase data ([2]; 30 μg/ml, day 25) of 6061, a reverse transcriptase data ([2]; 30 μg/ml, day 32) of 7572 and a reverse transcriptase data ([2]; 30 μg/ml, day 39) of 8558. For the same compound, the reverse transcriptase data ([2]; 30 μg/ml, day 46) was 3065, the reverse transcriptase data ([2]; 30 μg/ml, day 53) was 3643 and the reverse transcriptase data ([2]; 30 μg/ml, day 60) was 3445. It also gave a reverse transcriptase data ([2]; 30 μg/ml, day 67) of 4368, a reverse transcriptase data ([2]; 30 μg/ml, day 71) of 1498 and a reverse transcriptase data ([2]; 30 μg/ml, day 74) of 3639. It also gave a reverse transcriptase data ([2]; 30 μg/ml, day 88) of 2697, a reverse transcriptase data ([2]; 30 μg/ml, day 95) of 2442 and a reverse transcriptase data ([2]; 30 μg/ml, day 102) of 2815. For the same compound, the reverse transcriptase data ([2]; 30 μg/ml, day 109) was 2095 and the “reverse transcriptase data on continuation (in words)” value ([2]; run through 242 days) was “data remained consistent”.
